Test system: Jurkat cells
Assay: Immunoblot of caspase 3 in Jurkat cells
Assay type: cell-based, human
Settings: for cell apoptosis, immunoblot of caspase 3: Jurkat cells, 12 hours at 10 nM; for caspase-3 cleavage in Jurkat cells: dose-dependent, immunoblot; for cell apoptosis / Caspase 3 activation: Jurkat 5M per well, 2 nM-1000 nM, 12 hours
Description: FIG. 1. Portimine A is non-toxic to primary human PBMCs. Portimine A and its functional analogs show stereo-selective acute toxicity in cancer cells. […] (B) Structure of portimine related analogs: phenyl-portimine A (Ph-PA, 36) and epi-portimine A (ePA, 38). Structure of fully functionalized portimine A-based epimeric probe pair: portimine A-diazirine-alkyne (PA-DA, 35-2) and epi-portimine A-diazirine-alkyne (ePA-DA, 35-1). (C) Cell viability analysis of portimine A and analogs. Jurkat cells were treated with increasing concentrations of portimine A and analogs for 24 hours. All presented data as mean of biological replicated experiments (n=3). […] Jurkat cells were treated with portimine A or analogs for 12 hours at 10 nM.
FIG. 3. Initial SAR studies: Assessing activity of PAL functionalized PTMA analogs. […] (A) PA and Ph-PA show less toxic to healthy PBMCs compared to Jurkat cells. […] (B) Immunoblot of caspase-3 in Jurkat and PBMCs with indicated conditions.
FIG. 5. […] (I, J) Confirmation of PA-DA engagement of NMD3 in Jurkat and HCC1806 cells. […] Treatment condition: Jurkat (5M per well). Portimine A concentration: 2 nM-1000 nM; In total treat cell for 12 hours.
• 1) Portimine A and its functional analogs show stereo-selective acute toxicity in cancer cells (FIG. 1). […] (B) Structure of portimine related analogs: phenyl-portimine A (Ph-PA, 36) and epi-portimine A (ePA, 38). Structure of fully functionalized portimine A-based epimeric probe pair: portimine A-diazirine-alkyne (PA-DA, 35-2) and epi-portimine A-diazirine-alkyne (ePA-DA, 35-1). (C) Cell viability analysis of portimine A and analogs. Jurkat cells were treated with increasing concentrations of portimine A and analogs for 24 hours. All presented data as mean of biological replicated experiments (n=3). […] Jurkat cells were treated with portimine A or analogs for 12 hours at 10 nM. […] Structurally related negative control ePA and PB are non-toxic in all cell types in the current concentrate range. PBMCs (25k per well), Jurkat (10k per well). […] Cell cycle analysis in Jurkat cells (FIG. 2). Jurkat cells were treated with 10 nM of indicated compounds for 24 hours, and propodium iodide was used to identify different stages of cells by flow cytometry. […] (A) PA and Ph-PA show less toxic to healthy PBMCs compared to Jurkat cells. […] (B) Immunoblot of caspase-3 in Jurkat and PBMCs with indicated conditions. […] (A) Pharmacokinetic studies of mouse intraperitoneal (i.p.) and oral (p.o.) administration for portimine (n=3). […] Impact of PA [0.3 or 1 mg/kg intraperitoneally] on MC38 tumor growth in WT mice (n=6). (C) Kaplan-Myer survival curve of WT MC38 tumor-bearing mice (n=6) after treatment with PA as described in (D). Mice were euthanized when tumor area exceeded 2000 mm^3. Statistical analysis was performed using ANOVA analysis followed by multiple comparisons test, * p≤0.05. Treatment condition: Jurkat (60 M per condition); PA-DA/ePA-DA concentration: 0.5 uM, PA or ePA: 5 uM; Incubate with probe with or without competitors (PA, ePA) for 30 min; UV irradiated for 20 min. (0.5 uM PA-DA add a no-UV condition), Standard pulldown & biotin-enrichment and western blot analysis (Elute condition: 2× sample buffer+500 uM biotin, boil for 20 mins); Primary antibody NMD3 (ProteinTech, 1:150), Actin (BioRad, 1:10000). […] Chemical proteomic profiling with PA-DA in Jurkat cells (A, B, C, G) and HCC1806 cells (D, E, F, H) show NMD3 is the primary target candidate of portimine A. Volcano plot in panels A and D show protein competition in cells treated with active photoaffinity probe PA-DA (500 nM) and DMSO or the active competitor portimine A (PA, […]), dotted lines indicate threshold of fold change <4, p-value>0.05. […] (I, J) Confirmation of PA-DA engagement of NMD3 in Jurkat and HCC1806 cells. […] Treatment condition: Jurkat (5M per well). Portimine A concentration: 2 nM-1000 nM; In total treat cell for 12 hours. […] Protein degradation of p53, Mcl1, Bid, Bim, Noxa can be rescued by MG132 or Epoxomicin. […]

SMILES	cell apoptosis, immunoblot of caspase 3	caspase-3 cleavage in Jurkat cells	cell apoptosis / Caspase 3 activation
C#CCCC1(CCNC(=O)c2ccc(C3=C[C@@H]4[C@@H]5O[C@]6(CC[C@H](O6)C(C)C[C@@H](O)C5=O)CC(O)C5=NCC[C@@]54CC3)cc2)N=N1 (stereo partly shown) [PA-DA, portimine A-diazirine-alkyne]	induce cell apoptosis	induced caspase-3 cleavage in a dose-dependent manner	
CC1C[C@@H](O)C(=O)[C@H]2O[C@]3(CC[C@@H]1O3)CC(O)C1=NCC[C@@]13CCC(c1ccccc1)=C[C@H]23 (stereo partly shown) [Ph-PA, phenyl-portimine A]	induce cell apoptosis		
C=CC1=C[C@@H]2[C@@H]3OC4(CC[C@H](O4)C(C)C[C@@H](O)C3=O)CC(=O)C3=NCC[C@@]32CC1 (stereo partly shown) [PB, portimine B]	do not		
C=CC1=C[C@@H]2[C@@H]3O[C@]4(CC[C@H](O4)C(C)C[C@@H](O)C3=O)CC(O)C3=NCC[C@@]32CC1 (stereo partly shown) [PA, portimine A]	induce cell apoptosis	induced caspase-3 cleavage in a dose-dependent manner	causes cell apoptosis in dose-dependent manner
C#CCCC1(CCNC(=O)c2ccc(C3=C[C@@H]4[C@@H]5O[C@]6(CC[C@H](O6)C(C)C[C@@H](O)C5=O)C[C@@H](O)C5=NCC[C@@]54CC3)cc2)N=N1 (stereo partly drawn) [ePA-DA, epi-portimine A-diazirine-alkyne]	do not		
C=CC1=C[C@@H]2[C@@H]3O[C@]4(CC[C@H](O4)C(C)C[C@@H](O)C3=O)C[C@@H](O)C3=NCC[C@@]32CC1 (stereo partly drawn) [ePA, epi-portimine A]	do not		does not show significant Caspase 3 activation

— patent publication US20260242390A1, “TOTAL SYNTHESES OF PORTIMINE A AND ANALOGUES THEREOF AS SMALL MOLECULE MODULATORS OF NMD3” (priority 2023, published 2026)
